Publication PMC9080489, “Synthesis and biological evaluation of 2-aryl-benzimidazole derivatives of dehydroabietic acid as novel tubulin polymerization inhibitors” (RSC Advances, 2018)
Where two headings read alike, the source gives them in different places.

How the values were obtained:
[1] = system: human breast cancer cell line (MDA-MB-231); experiment: MTT cytotoxic assay, MDA-MB-231; type: cell-based; settings: read-out: IC50 MDA-MB-231
Protocol: (§1) The in vitro antiproliferative activity of DAA derivatives (1–5, 6a–k, 7a–k) were evaluated by MTT assay against human hepatocarcinoma cell line (SMMC-7721), human breast cancer cell line (MDA-MB-231), human cervical carcinoma cell line (HeLa), mouse colon cancer cell line (CT-26) and human normal hepatocyte cell line (QSG-7701). Nocodazole was co-assayed as the positive control and DMEM culture medium containing 0.1% DMSO was used as negative control. The results of the tested compounds expressed as IC50 values (concentration required to inhibit tumor cell proliferation by 50%) were presented in Table 1.
(§2) The human hepatocarcinoma cell line (SMMC-7721), human breast cancer cell line (MDA-MB-231), human cervical carcinoma cell line (HeLa), mouse colon cancer cell line (CT-26) and human normal hepatocyte cells (QSG-7701) used in this study were all obtained from Keygene Biotech., China. These cell lines were maintained in DMEM medium supplemented with 10% heat-inactivated fetal bovine serum in a humidified atmosphere of 5% CO2 at 37 °C.
(§3) The in vitro cytotoxic activities of the benzimidazole derivatives of dehydroabietic acid were evaluated against tested cell lines via the MTT colorimetric method. Briefly, different tumor cells were grown in DMEM medium supplemented with 10% fetal bovine serum, penicillin (100 U mL^−1), and streptomycin (50 μg mL^−1). Cells were harvested at log phase of growth and seeded in 96-well plates (100 μL per well at a density of 2 × 10^5 cells mL^−1). After 24 h incubation at 37 °C and 5% CO2 to allow cell attachment, cultures were exposed to various concentrations of the isolated compounds for 48 h. Finally, MTT solution (2.5 mg mL^−1 in PBS) was added (40 μL per well). Plates were further incubated for 4 h at 37 °C, and the formazan crystals formed were dissolved by adding 150 μL per well of DMSO. Absorption at 570 nm was measured with an ELISA plate reader. The results were expressed as IC50 values with standard deviations, which was defined as the concentration at which 50% survival of cells was discerned. Nocodazole was co-assayed as positive control.

[2] = system: mouse colon cancer cell line (CT-26); experiment: MTT cytotoxic assay, CT-26; type: cell-based; settings: Mus musculus, CT26, 48 h, read-out: IC50 CT-26
Protocol: as §1, §2, §3

[3] = system: human hepatocarcinoma cell line (SMMC-7721); experiment: MTT cytotoxic assay, SMMC-7721; type: cell-based; settings: Homo sapiens, SMMC-7721, 48 h, read-out: IC50 SMMC-7721
Protocol: as §1, §2, §3

[4] = system: human cervical carcinoma cell line (HeLa); experiment: MTT cytotoxic assay, HeLa; type: cell-based; settings: read-out: IC50 HeLa
Protocol: as §1, §2, §3

[5] = system: human normal hepatocyte cell line (QSG-7701); experiment: MTT cytotoxic assay, QSG-7701; type: cell-based; settings: QSG7701, 48 h exposure
Protocol: as §1, §2, §3

Compound	IC50 ([1]; MDA-MB-231, MTT, 48 h exposure)	IC50 ([2]; MTT, 48 h exposure)	IC50 ([3]; MTT, 48 h exposure)	IC50 ([4]; MTT, 48 h exposure)	IC50 ([1]; MDA-MB-231, 48 h)	IC50 [2]	IC50 [3]	IC50 ([4]; 48 h)	melting point	IC50 [5]
CC(C)c1ccc2c(c1)CC[C@H]1[C@](C)(C(=O)O)CCC[C@]21C [Compound 1, Dehydroabietic acid]	> 50 µM	> 50 µM	> 50 µM	> 50 µM	–	–	–	–	–	–
COC(=O)[C@]1(C)CCC[C@]2(C)c3ccc(C(C)C)cc3CCC12 (stereo partly drawn) [Compound 2]	> 50 µM	> 50 µM	> 50 µM	> 50 µM	–	–	–	–	–	–
COC(=O)[C@]1(C)CCC[C@]2(C)c3cc(Br)c(C(C)C)cc3CCC12 (stereo partly drawn) [Compound 3]	> 50 µM	> 50 µM	> 50 µM	> 50 µM	–	–	–	–	–	–
COC(=O)[C@]1(C)CCC[C@]2(C)c3cc(Br)c([N+](=O)[O-])c([N+](=O)[O-])c3CCC12 (stereo partly drawn) [Compound 4, methyl 12-bromo-13,14-dinitro-deisopropyldehydroabietate]	–	–	–	–	38.8 ± 2.15 µM	35.1 ± 3.87 µM	31.8 ± 3.22 µM	> 50 µM	–	–
COC(=O)[C@]1(C)CCC[C@]2(C)c3cc(Br)c(N)c(N)c3CCC12 (stereo partly drawn) [Compound 5]	> 50 µM	38.5 ± 3.79 µM	> 50 µM	43.4 ± 2.81 µM	–	–	–	–	–	–
COC(=O)[C@]1(C)CCC[C@]2(C)c3cc(Br)c4nc(-c5ccc(C)cc5)[nH]c4c3CCC12 (stereo partly drawn) [Compound 6b, Methyl 2′-(p-tolyl)-12-bromo-13,14-imidazolyl-deisopropyl-dehydroabietate]	> 50 µM	25.3 ± 4.96 µM	> 50 µM	> 50 µM	–	–	–	–	143 to 145 °C	–
COC(=O)[C@]1(C)CCC[C@]2(C)c3cc(Br)c4nc(-c5ccccc5F)[nH]c4c3CCC12 (stereo partly drawn) [Compound 6e, Methyl 2′-(2-fluorophenyl)-12-bromo-13,14-imidazolyl-deisopropyl-dehydroabietate]	> 50 µM	> 50 µM	12.3 ± 2.46 µM	> 50 µM	–	–	–	–	138 to 139 °C	–
COC(=O)[C@]1(C)CCC[C@]2(C)c3cc(Br)c4nc(-c5ccc(Cl)cc5)[nH]c4c3CCC12 (stereo partly drawn) [Compound 6f, Methyl 2′-(4-chlorophenyl)-12-bromo-13,14-imidazolyl-deisopropyl-dehydroabietate]	33.7 ± 4.7 µM	> 50 µM	16.5 ± 1.87 µM	> 50 µM	–	–	–	–	139 to 141 °C	–
COC(=O)[C@]1(C)CCC[C@]2(C)c3cc(Br)c4nc(-c5ccccc5Cl)[nH]c4c3CCC12 (stereo partly drawn) [Compound 6g, Methyl 2′-(2-chlorophenyl)-12-bromo-13,14-imidazolyl-deisopropyl-dehydroabietate]	19.2 ± 0.93 µM	> 50 µM	40.8 ± 3.32 µM	> 50 µM	–	–	–	–	142 to 143 °C	–
COC(=O)[C@]1(C)CCC[C@]2(C)c3cc(Br)c4nc(-c5ccc(Br)cc5)[nH]c4c3CCC12 (stereo partly drawn) [Compound 6h, Methyl 2′-(4-bromophenyl)-12-bromo-13,14-imidazolyl-deisopropyl-dehydroabietate]	35.3 ± 1.77 µM	> 50 µM	16.6 ± 1.4 µM	> 50 µM	–	–	–	–	141 to 142 °C	–
COC(=O)[C@]1(C)CCC[C@]2(C)c3cc(Br)c4nc(-c5ccc(OC)cc5)[nH]c4c3CCC12 (stereo partly drawn) [Compound 6i, Methyl 2′-(4-methoxyphenyl)-12-bromo-13,14-imidazolyl-deisopropyl-dehydroabietate]	> 50 µM	21.2 ± 2.23 µM	> 50 µM	> 50 µM	–	–	–	–	140 to 142 °C	–
COC(=O)[C@]1(C)CCC[C@]2(C)c3cc(Br)c4nc(-c5c[nH]c6ccccc56)[nH]c4c3CCC12 (stereo partly drawn) [Compound 6k, Methyl 2′-(1H-indol-3-yl)-12-bromo-13,14-imidazolyl-deisopropyl-dehydroabietate]	0.56 ± 0.13 µM	–	–	0.98 ± 0.11 µM	–	–	–	–	139 to 140 °C	8.43 ± 1.06 µM
COC(=O)[C@]1(C)CCC[C@]2(C)c3cc(-c4cc(OC)c(OC)c(OC)c4)c4nc(-c5ccc(C)cc5)[nH]c4c3CCC12 (stereo partly drawn) [Compound 7b, Methyl 2′-(p-tolyl)-12-(3,4,5-trimethoxyphenyl)-13,14-imidazolyl-deisopropyl-dehydroabietate]	> 50 µM	15.6 ± 1.57 µM	> 50 µM	> 50 µM	–	–	–	–	133 to 135 °C	–
COC(=O)[C@]1(C)CCC[C@]2(C)c3cc(-c4cc(OC)c(OC)c(OC)c4)c4nc(-c5ccccc5F)[nH]c4c3CCC12 (stereo partly drawn) [Compound 7e, Methyl 2′-(2-fluorophenyl)-12-(3,4,5-trimethoxyphenyl)-13,14-imidazolyl-deisopropyl-dehydroabietate]	18.2 ± 1.32 µM	10.4 ± 1.91 µM	> 50 µM	18.3 ± 2.98 µM	–	–	–	–	155 to 157 °C	–
COC(=O)[C@]1(C)CCC[C@]2(C)c3cc(-c4cc(OC)c(OC)c(OC)c4)c4nc(-c5ccccc5Cl)[nH]c4c3CCC12 (stereo partly drawn) [Compound 7g, Methyl 2′-(2-chlorophenyl)-12-(3,4,5-trimethoxyphenyl)-13,14-imidazolyl-deisopropyl-dehydroabietate]	15.7 ± 0.87 µM	13.4 ± 2.35 µM	> 50 µM	> 50 µM	–	–	–	–	157 to 159 °C	–
COC(=O)[C@]1(C)CCC[C@]2(C)c3cc(-c4cc(OC)c(OC)c(OC)c4)c4nc(-c5ccc(OC)cc5)[nH]c4c3CCC12 (stereo partly drawn) [Compound 7i, Methyl 2′-(4-methoxyphenyl)-12-(3,4,5-trimethoxyphenyl)-13,14-imidazolyl-deisopropyl-dehydroabietate]	> 50 µM	23.5 ± 2.38 µM	> 50 µM	> 50 µM	–	–	–	–	153 to 155 °C	–
COC(=O)[C@]1(C)CCC[C@]2(C)c3cc(-c4cc(OC)c(OC)c(OC)c4)c4nc(-c5ccc6[nH]ccc6c5)[nH]c4c3CCC12 (stereo partly drawn) [Compound 7j, Methyl 2′-(1H-indol-5-yl)-12-(3,4,5-trimethoxyphenyl)-13,14-imidazolyl-deisopropyl-dehydroabietate]	0.83 ± 0.2 µM	–	–	3.75 ± 0.78 µM	–	–	–	–	189 to 191 °C	12.8 ± 1.27 µM
COC(=O)[C@]1(C)CCC[C@]2(C)c3cc(-c4cc(OC)c(OC)c(OC)c4)c4nc(-c5c[nH]c6ccccc56)[nH]c4c3CCC12 (stereo partly drawn) [Compound 7k, Methyl 2′-(1H-indol-3-yl)-12-(3,4,5-trimethoxyphenyl)-13,14-imidazolyl-deisopropyl-dehydroabietate]	0.21 ± 0.02 µM	–	–	5.86 ± 0.63 µM	–	–	–	–	199 to 201 °C	11.8 ± 2.12 µM
COC(=O)Nc1nc2ccc(C(=O)c3cccs3)cc2[nH]1 [Nocodazole, nocodazole, reference compound]	0.76 ± 0.06 µM	1.37 ± 0.11 µM	0.92 ± 0.07 µM	0.87 ± 0.05 µM	–	–	–	–	–	13.8 ± 1.08 µM
